Bridge positions count the residues as written; N and C are the ends. Ends that are not written are not given here. Peptide text beside a SMILES is read from it.
What was measured:
[1] = In vivo intracellular peptide delivery to the pancreas (confocal microscopy); set-up: species or system NOD mice; conditions: single i.p. injection (0.7 mg FITC-labeled peptide/mouse or FITC of equivalent fluorescence); 2 h after injection
Description: Cell-penetrating peptide (cSN50, MW=3149; cSN50.1, MW=2986), and non-cell-penetrating peptide (cN50, MW=1651), were synthesized, purified, filter-sterilized, and analyzed as described elsewhere (Torgerson et al. (1998) J Immunol 161: 6084-6092; Liu et al. (2000) J Biol Chem 275: 16774-16778). To monitor the intracellular delivery of peptides to pancreas, cSN50 peptide was coupled with fluorescein isothiocyanate (FITC, Pierce) according to the manufacturer's protocol.
For in vivo detection of fluorescein-labeled peptides in the pancreas, NOD mice were sacrificed at 2 h after intraperitoneal (i.p.) injection of 0.7 mg of FITC-labeled cSN50 peptide/mouse. The pancreata were washed with saline and prepared for cryosections (10 μm thickness). Control solution of FITC alone with equivalent fluorescence units was injected separately to track distribution to the pancreas.
Intracellular delivery of a Nuclear Transport Modifier to the pancreas reduces islet inflammation (insulitis). […] It was first determined whether cSN50 would be delivered to the pancreas, the primary site of autoimmune attack against beta cells in pancreatic islets. […] Using confocal microscopy, the pancreatic delivery of FITC-labeled cSN50 peptide following a single intraperitoneal (i.p.) injection was assessed. […]

[2] = system: autoimmune diabetes in NOD mice; experiment: Autoimmune diabetes progression in cyclophosphamide-synchronized NOD mice (blood glucose); format: in vivo; conditions: general statement, experiments described herein
Description: NOD/LtJ, NOD-BDC2.5 and C57BL/6 mice were purchased from the Jackson Laboratories (Bar Harbor, Me.) at 6-8 weeks of age. All mice were housed and maintained according to the guidelines for use and care of laboratory animals as set forth by Vanderbilt University and regulated via the Vanderbilt IACUC. All NOD mice were monitored twice weekly for the development of diabetes by blood glucose measurement with FreeStyle® FastTake test strips (Abbott Laboratories, Abbott Park, Ill.). Two consecutive glucose measurements >220 mg/dl constituted a diagnosis of diabetes. A colony of NOD mice kept by a collaborating laboratory in the same animal suite has a spontaneous diabetes incidence of 80-90% in females by 30 weeks of age indicating an animal environment that is conducive for diabetes development.
At 10-11 weeks of age, female NOD mice received an intraperitoneal bolus injection of 200 mg/kg cyclophosphamide (Sigma). Cyclophosphamide was prepared by reconstitution of powder in sterile saline for injection.
45 h after diabetes synchronization with cyclophosphamide, treatment with cSN50 or control was initiated. Mice receiving cSN50 were given 35 μg/g of cSN50 i.p. every two hours for the next 48 h. Control mice received either saline or non-cell penetrating cN50 peptide at molar equivalent (20 μg/g). cN50 peptide, contains the cyclized NLS but lacks the membrane translocating motif. […]

[3] = Continued peptide delivery in other disease models, toxicity; format: in vivo; conditions: up to 8 weeks, health, survival, weight gain, liver enzymes, blood cell counts normal
Description: Reduction or complete elimination of islet-destructive autoreactive T and B cells may be useful in treating T1D and potentially other autoimmune diseases. Other autoimmune disorders include Systemic Lupus Erythematosus, Multiple Sclerosis, Rheumatoid Arthritis, Crohn Diseases, and Ulcerative Collitis. Under conditions of metabolic, inflammatory, and oxidant stress, beta cell mass may be further controlled by important interactions between bone marrow-derived cells and islet beta cells. Transcriptional modulation of these interactions via targeting of the nuclear import machinery represents an important new opportunity for therapeutic development. Even though cSN50 can modulate nuclear transport of several stress-responsive transcription factors that utilize importin alpha 1/karyopherin alpha 5 (as well as other importins/karyopherins, e.g., importin alpha 5/karyopherin) for nuclear trafficking, intracellular delivery of the Nuclear Transport Modifier is rapid and restricted to the relatively short intracellular persistence of the injected cargo (Hawiger J., (1999) Current Opinion in Chem. Biology 3:89-94). Despite high intensity dosing of cSN50 in the protocols disclosed herein, short-term or long-term adverse effects were not observed. […] In preliminary studies, spontaneous disease was reversed in 40% of the NOD mice during a continuing NTM treatment for 3 weeks.

[4] = Anti-cSN50 peptide antibody induction (ELISA); format: in vivo, NOD mice; conditions: limit of detection 10 ng/mL
[5] = system: NOD mice; experiment: Toxicity observation and clinical chemistry in treated NOD mice
Description: ALT and BUN levels were determined on a VITROS 250 Chemistry analyzer using multi-layered vitros slides and colorimetric or enzyme rate tests as appropriate.
Ten week old female NOD mice received one dose of Cy (0.2 mg/g); after 45 h, intracellular peptide delivery was initiated with cSN50 (35 μg/g) or with control cN50 and continued every 2 h for 48 h. Serum was obtained daily from the saphenous vein and measurements of ALT (FIG. 8A) and BUN (FIG. 8B) were performed in 7 mice in each group.

## fluorescein isothiocyanate [FITC]
[1]
  delivery to / distribution in the pancreas: did not penetrate the organ

## AAVALLPAVLLALLAPCVQRKRQKLMPC (disulfide 17-28 (inferred)) [cSN50.1, cSN50 with the tyrosine at position 18 removed to increase solubility]
[2]
  islet protection from immune destruction: effectively protected islets from immune destruction

## CSCC[C@@H]1NC(=O)[C@H](CC(C)C)NC(=O)[C@H](CCCCN)NC(=O)[C@H](CCC(N)=O)NC(=O)[C@H](CCCNC(=N)N)NC(=O)[C@H](CCCCN)NC(=O)[C@H](CCCNC(=N)N)NC(=O)[C@H](CCC(N)=O)NC(=O)[C@H](C(C)C)NC(=O)[C@H](Cc2ccc(O)cc2)NC(=O)[C@@H](NC(=O)[C@@H]2CCCN2C(=O)[C@H](C)NC(=O)[C@H](CC(C)C)NC(=O)[C@H](CC(C)C)NC(=O)[C@H](C)NC(=O)[C@H](CC(C)C)NC(=O)[C@H](CC(C)C)NC(=O)[C@@H](NC(=O)[C@H](C)NC(=O)[C@@H]2CCCN2C(=O)[C@H](CC(C)C)NC(=O)[C@H](CC(C)C)NC(=O)[C@H](C)NC(=O)[C@@H](NC(=O)[C@H](C)NC(=O)[C@H](C)N)C(C)C)C(C)C)CSSC[C@@H](C(=O)O)NC(=O)[C@@H]2CCCN2C1=O [cSN50] (H-AAVALLPAVLLALLAPCYVQRKRQKLMPC-OH; disulfide 17-29; N-terminus and C-terminus assumed)
[3]
  toxicity on continued delivery: without evidence of toxicity
[4]
  anti-cSN50 peptide antibody induction: not detected
[5]; 365 days of observation after 48 h treatment
  overt signs of toxicity: did not display overt signs of toxicity
[5]; after intensive treatment
  acquired infection: no signs of acquired infection
  weight gain: normal weight gain
[5]; serum daily, 7 mice per group, vs cN50 control
  BUN level: not significantly different from control
[5]; serum daily, 7 mice per group, vs control
  ALT level: not significantly different from control
[5]; serum, 7 mice per group
  alkaline phosphatase, creatinine, creatine kinase, and total bilirubin: below the limit of detection

From US9388224B2, “Compositions for preserving insulin-producing cells and insulin production and treating diabetes” (VANDERBILT UNIVERSITY, priority 2011, dated 2016)
